Test results reported in publication PMC4391372 (Journal of agricultural and food chemistry, 2011).

Biological target: T1, hTAS2R31 (Homo sapiens, UniProt P59538)
T1 sequence (P59538 1-309): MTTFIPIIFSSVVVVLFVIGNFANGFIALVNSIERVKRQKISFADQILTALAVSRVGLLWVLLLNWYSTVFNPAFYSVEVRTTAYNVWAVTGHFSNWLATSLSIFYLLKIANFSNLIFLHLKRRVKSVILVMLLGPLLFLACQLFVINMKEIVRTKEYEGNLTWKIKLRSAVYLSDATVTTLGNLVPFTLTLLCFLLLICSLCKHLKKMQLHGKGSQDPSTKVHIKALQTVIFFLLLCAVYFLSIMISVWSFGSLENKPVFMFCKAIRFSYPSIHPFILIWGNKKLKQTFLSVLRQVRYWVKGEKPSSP
Test: HEK-293T cell-based receptor assay

In order of rising IC50:
1. COc1cc(O)c2c(c1)O[C@H](c1ccc(O)cc1)CC2=O [compound 2, sakuranetin]  5.5 ± 2.5 µM
2. COc1cc2c(c(O)c1OC)C(=O)C[C@@H](c1ccc(O)cc1)O2 [compound 9, 6-methoxysakuranetin]  10.2 ± 5.4 µM
3. COc1cc(-c2cc(=O)c3c(O)c(OC)c(O)cc3o2)ccc1O [compound 10, jaceosidin]  11.7 ± 6 µM
